Where “and” joins values, the source holds several entries; their conditions need not be identical. Equal entries are not always repeated. Entries after “also recorded” stand apart in the source; their conditions may differ.
Columns and labels:
[1] = molecular target: aldose reductase (ALR2) (Bos taurus, UniProt P16116); assay: Aldose reductase; assay type: biochemical, calf; conditions: for selectivity for ALR2 over ALR1, result in words: ALR2 IC50 compared with ALR1 percent inhibition
[2] = molecular target: aldehyde reductase (ALR1) (Bos taurus, UniProt Q3ZCJ2); assay: Aldehyde reductase; assay type: biochemical, calf; conditions: for IC50: ALR1 IC50(μM) ± SEM, enzyme partially purified from calf kidneys, triplicate
aldehyde reductase (ALR1), sequence (Q3ZCJ2 whole entry): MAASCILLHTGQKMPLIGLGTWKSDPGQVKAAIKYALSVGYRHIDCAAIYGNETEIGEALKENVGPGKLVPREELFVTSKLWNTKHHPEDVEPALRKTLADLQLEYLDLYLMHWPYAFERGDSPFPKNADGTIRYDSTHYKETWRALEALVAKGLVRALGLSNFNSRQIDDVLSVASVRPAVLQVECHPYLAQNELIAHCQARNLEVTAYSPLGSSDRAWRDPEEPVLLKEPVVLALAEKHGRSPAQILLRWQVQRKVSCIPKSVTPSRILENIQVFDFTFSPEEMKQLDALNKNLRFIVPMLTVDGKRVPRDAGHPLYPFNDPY

SMILES	selectivity for ALR2 over ALR1, result in words [1]	ALR2 inhibitory activity, result in words [1]	ALR1 inhibitory activity, result in words [2]	IC50 [2]
CC(=N/N=c1\scc(-c2ccc(Cl)cc2)n1Cc1ccccc1)C12CC3CC(CC(C3)C1)C2 [Compound 6e, (2Z)-2-((1-(adamantan-1-yl)ethylidene)hydrazono)-3-benzyl-4-(4-chlorophenyl)-2,3-dihydrothiazole]	selective ALR2 inhibitors; also recorded: good inhibitory activity and selectively against ALR2			
COc1cccc(-n2c(-c3ccc([N+](=O)[O-])cc3)cs/c2=N/N=C(/C)c2ccc3c(c2)NC(=O)CO3)c1 [Compound 5f, 6-((E)-1-((Z)-(3-(3-methoxyphenyl)-4-(4-nitrophenyl)thiazol-2(3H)-ylidene) hydrazono)ethyl)-2H-benzo[b][1,4]oxazin-3(4H)-one]		active inhibitors	active inhibitors	3.13 µM and 3.24 µM
CC(=N/N=c1\scc(-c2ccc(Br)cc2)n1-c1ccccc1C)C12CC3CC(CC(C3)C1)C2 [Compound 6c, (2Z)-2-((1-(adamantan-1-yl)ethylidene)hydrazono)-4-(4-bromophenyl)-3-(o-tolyl)-2,3-dihydrothiazole]		active inhibitors	active inhibitors	4.07 ± 2.35 µM
C/C(=N/N=c1/scc(-c2ccc(Cl)cc2)n1-c1ccccc1)c1ccc2c(c1)OCCO2 [Compound 7g, (Z)-4-(4-chlorophenyl)-2-((E)-(1-(2,3-dihydrobenzo[b][1,4]dioxin-6-yl)ethylidene) hydrazono)-3-phenyl-2,3-dihydrothiazole]		active inhibitors	active inhibitors	3.14 ± 0.41 µM
CC(=N/N=c1\scc(-c2ccc(Br)cc2)n1-c1c(C)cccc1C)C12CC3CC(CC(C3)C1)C2 [Compound 6d, (2Z)-2-((1-(adamantan-1-yl)ethylidene)hydrazono)-4-(4-bromophenyl)-3-(2,6-dimethylphenyl)-2,3-dihydrothiazole]	selective ALR2 inhibitors; also recorded: good inhibitory activity and selectively against ALR2			
O=[N+]([O-])c1ccc(-c2cs/c(=N/N=C\c3c[nH]c4ccccc34)n2Cc2ccccc2)cc1 [Compound 8e, (Z)-2-((E)-((1H-indol-3-yl)methylene)hydrazono)-3-benzyl-4-(4-nitrophenyl)-2,3-dihydrothiazole]		active inhibitors	active inhibitors	2.94 ± 1.34 µM
CC(=N/N=c1\scc(-c2ccc(Cl)cc2)n1-c1c(C)cccc1C)C12CC3CC(CC(C3)C1)C2 [Compound 6f, (2Z)-2-((1-(adamantan-1-yl)ethylidene)hydrazono)-4-(4-chlorophenyl)-3-(2,6-dimethylphenyl)-2,3-dihydrothiazole]	selective ALR2 inhibitors; also recorded: good inhibitory activity and selectively against ALR2			
C/C(=N/N=c1/scc(-c2ccc(Br)cc2)n1Cc1ccccc1)c1ccc2c(c1)OCCO2 [Compound 7b, (Z)-3-benzyl-4-(4-bromophenyl)-2-((E)-(1-(2,3-dihydrobenzo[b][1,4]dioxin-6-yl)ethylidene)hydrazono)-2,3-dihydrothiazole]	selective ALR2 inhibitors; also recorded: excellent selectivity; also recorded: considerably selective activity against ARL2; also recorded: significantly selective			
CC(=N/N=c1\scc(-c2ccc(Br)cc2)n1-c1cccc2ccccc12)C12CC3CC(CC(C3)C1)C2 [Compound 6b, (2Z)-2-((1-(adamantan-1-yl)ethylidene)hydrazono)-4-(4-bromophenyl)-3-(naphthalen-1-yl)-2,3-dihydrothiazole]		active inhibitors	active inhibitors	4.93 ± 1.86 µM
COc1cccc(-n2c(-c3ccc(Cl)cc3)cs/c2=N/N=C(/C)c2ccc3c(c2)NC(=O)CO3)c1 [Compound 5j, 6-((E)-1-((Z)-(4-(4-chlorophenyl)-3-(3-methoxyphenyl)thiazol-2(3H)-ylidene) hydrazono)ethyl)-2H-benzo[b][1,4]oxazin-3(4H)-one]		weak activity	weak activity	
COc1cccc(-n2c(-c3ccc([N+](=O)[O-])cc3)cs/c2=N/N=C\c2c[nH]c3ccccc23)c1 [Compound 8f, (Z)-2-((E)-((1H-indol-3-yl)methylene)hydrazono)-3-(3-methoxyphenyl)-4-(4-nitrophenyl)-2,3-dihydrothiazole]	selective ALR2 inhibitor			
CC(=N/N=c1\scc(-c2ccc(Br)cc2)n1-c1ccccc1)C12CC3CC(CC(C3)C1)C2 [Compound 6a, (2Z)-2-((1-(adamantan-1-yl)ethylidene)hydrazono)-4-(4-bromophenyl)-3-phenyl-2,3-dihydrothiazole]		active inhibitors	active inhibitors	3.29 ± 1.47 µM
C/C(=N/N=c1/scc(-c2ccc(Cl)cc2)n1Cc1ccccc1)c1ccc2c(c1)OCCO2 [Compound 7i, (Z)-3-benzyl-4-(4-chlorophenyl)-2-((E)-(1-(2,3-dihydrobenzo[b][1,4]dioxin-6-yl)ethylidene)hydrazono)-2,3-dihydrothiazole]		active inhibitors	active inhibitors	2.2 ± 0.92 µM
C/C(=N/N=c1/scc(-c2ccc(Cl)cc2)n1-c1ccc(F)cc1)c1ccc2c(c1)OCCO2 [Compound 7h, (Z)-4-(4-chlorophenyl)-2-((E)-(1-(2,3-dihydrobenzo[b][1,4]dioxin-6-yl)ethylidene) hydrazono)-3-(4-fluorophenyl)-2,3-dihydrothiazole]		active inhibitors	active inhibitors	2.94 ± 1.73 µM
COc1cccc(-n2c(-c3ccc(Br)cc3)cs/c2=N/N=C(/C)c2ccc3c(c2)NC(=O)CO3)c1 [Compound 5b, 6-((E)-1-((Z)-(4-(4-bromophenyl)-3-(3-methoxyphenyl)thiazol-2(3H)-ylidene) hydrazono)ethyl)-2H-benzo[b][1,4]oxazin-3(4H)-one]		weak activity	weak activity	
C/C(=N/N=c1/scc(-c2ccc(Br)cc2)n1-c1c(C)cccc1C)c1ccc2c(c1)OCCO2 [Compound 7c, (Z)-4-(4-bromophenyl)-2-((E)-(1-(2,3-dihydrobenzo[b][1,4]dioxin-6-yl)ethylidene) hydrazono)-3-(2,6-dimethylphenyl)-2,3-dihydrothiazole]	selective ALR2 inhibitors			
C/C(=N/N=c1/scc(-c2ccc(Br)cc2)n1-c1ccccc1)c1ccc2c(c1)OCCO2 [Compound 7a, (Z)-4-(4-bromophenyl)-2-((E)-(1-(2,3-dihydrobenzo[b][1,4]dioxin-6-yl)ethylidene) hydrazono)-3-phenyl-2,3-dihydrothiazole]	selective ALR2 inhibitors			
